From US9828357B2, “Cyclic compounds” (Takeda Pharmaceutical Company Limited, priority 2015, dated 2017)

Key:
[1] = biological target: T1, TLR4 (Mus musculus, UniProt Q9QUK6); assay: Inhibitory effect with respect to NO production (LPS/interferon γ-stimulated RAW264.7); format: cell-based, murine; details: RAW264.7 cells, LPS 1.25 ng/mL and mouse interferon γ 0.2 ng/mL, nitrite ion in culture supernatant
T1 construct: endogenous in cells; host or cells: RAW264.7 (murine macrophage cell line)
T1 sequence (Q9QUK6 26-835): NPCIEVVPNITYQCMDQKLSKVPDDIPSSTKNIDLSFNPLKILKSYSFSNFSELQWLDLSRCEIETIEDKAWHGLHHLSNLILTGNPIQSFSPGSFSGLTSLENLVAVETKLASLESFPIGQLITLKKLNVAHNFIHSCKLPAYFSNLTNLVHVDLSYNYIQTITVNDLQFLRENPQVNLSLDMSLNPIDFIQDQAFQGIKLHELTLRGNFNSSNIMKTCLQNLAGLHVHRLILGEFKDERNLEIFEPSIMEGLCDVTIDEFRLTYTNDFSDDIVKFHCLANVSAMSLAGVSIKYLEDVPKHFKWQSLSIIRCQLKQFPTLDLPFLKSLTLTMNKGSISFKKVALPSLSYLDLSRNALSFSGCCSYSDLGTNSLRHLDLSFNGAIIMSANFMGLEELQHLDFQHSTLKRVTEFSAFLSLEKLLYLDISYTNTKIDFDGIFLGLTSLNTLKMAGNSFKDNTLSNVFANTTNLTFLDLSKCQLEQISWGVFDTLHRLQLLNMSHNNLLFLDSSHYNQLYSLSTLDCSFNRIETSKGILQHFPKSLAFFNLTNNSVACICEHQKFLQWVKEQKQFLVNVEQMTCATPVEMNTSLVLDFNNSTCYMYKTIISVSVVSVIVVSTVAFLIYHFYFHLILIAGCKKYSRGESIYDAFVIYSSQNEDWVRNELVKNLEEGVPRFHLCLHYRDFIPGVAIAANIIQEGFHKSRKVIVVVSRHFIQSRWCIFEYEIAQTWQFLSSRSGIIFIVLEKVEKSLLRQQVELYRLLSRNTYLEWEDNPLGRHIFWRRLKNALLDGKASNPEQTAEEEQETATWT
T1 sequence (Q9JHF9 19-160 partner): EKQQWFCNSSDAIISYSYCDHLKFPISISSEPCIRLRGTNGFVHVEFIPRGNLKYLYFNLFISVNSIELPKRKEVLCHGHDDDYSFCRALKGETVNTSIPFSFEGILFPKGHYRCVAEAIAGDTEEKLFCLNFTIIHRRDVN
Experimental: The inhibitory effect on TLR4 was determined using the inhibition rate due to the test compound with respect to NO production as a result of addition of lipopolysaccharide (LPS) using murine macrophage cell line RAW264.7. The cells were adjusted to 2×10^6 cells/mL using RPM1-1640 culture medium (phenol red free) supplemented with 10% inactivated bovine fetal serum, and were plated on 384 well plate so as to contain 6×10^4 cells/30 μL per well. Thereafter the cells were cultured at 37° C. overnight under 5% CO2/95% air. The test compound dissolved in DMSO was diluted 200 times using RPM1-1640 culture medium and adjusted so as to form a compound concentration of 500 nM. The prepared test compound 10 μL (final concentration 100 nM) was added to the cells, and LPS (Sigma) and mouse interferon γ (Wako Pure Chemicals) were added in amounts of 10 μL so as to form final concentrations of 1.25 ng/mL and 0.2 ng/mL respectively. The cells were further cultured overnight, and then the nitrite ion (stable NO metabolite) concentration in the culture supernatant was measured as an index of NO production. The nitrite ion concentration was assayed by adding 10 μL of 20 μg/mL 2,3-diamino naphthalene (DAN) dissolved in 0.2N HCl to 20 μL culture supernatant, incubating at room temperature for ten minutes, and then adding 10 μL of 0.5N NaOH, and measuring the fluorescent value at 460 nm (excitation wavelength 355 nm) using an EnVision plate reader (Perkin Elmer). The NO production inhibition rate (%) was calculated using the value without the addition of stimulating agent as control of 100% inhibition, and the value without the addition of the compound as control of 0% inhibition.

[2] = test system: oxaliplatin induced-neuropathic pain model mouse; assay: Analgesic action on oxaliplatin induced-neuropathic pain model mouse; format: in vivo; details: C57BL/6N mice, 1 week after oxaliplatin 0.3 mg/kg i.p., mean ± standard error
Experimental: Oxaliplatin was diluted with saline by the predetermined concentration, and administered intraperitoneally to mice (C57BL/6N, male, 8 weeks old) at 0.3 mg/kg. The test compound was dissolved in 10% captisol or 10% captisol containing 0.1% N-methyl-2-pyrrolidone. The compound was administered intravenously (0.1-10 mg/kg body weight) to the mice immediately before intraperitoneal administration of various anticancer drugs. The pain threshold was measured 1 week after oxaliplatin administration. The pain threshold was evaluated as a weighted value (gram) showing pseudo-escape reaction, when the footpad of the right hind limb was pressed using balance type pressurizing device (Ugo Basile). The values in the table show the mean±standard errors of the weighted values.

Row | Structure (SMILES) | NO production inhibitory effect at 100 nM (% inhibition) [1] | Pain threshold (weighted value showing pseudo-escape reaction) ([2]; 0.1 mg/kg i.v.) | Pain threshold (weighted value showing pseudo-escape reaction) ([2]; 0.3 mg/kg i.v.) | Pain threshold (weighted value showing pseudo-escape reaction) ([2]; 1 mg/kg i.v.)
1 | CCOC(=O)C1=CC2(CC[C@H]1S(=O)(=O)[C@H]1CCc3cccc(Cl)c31)O[C@H](COC)[C@@H](COC)O2 [Compound 21, Ethyl (2R,3R,8R)-8-(((1S)-7-chloro-2,3-dihydro-1H-inden-1-yl)sulfonyl)-2,3-bis(methoxymethyl)-1,4-dioxaspiro[4.5]dec-6-ene-7-carboxylate] | 112 % inhibition | 160.0 ± 29.7 gram | 265.0 ± 58.5 gram | 285.0 ± 19.3 gram
2 | CCOC(=O)C1=CC2(CC[C@H]1S(=O)(=O)[C@H]1CCc3cc(F)cc(Cl)c31)O[C@H](CO)[C@@H](CO)O2 [Compound 14, Ethyl (2R,3R,8R)-8-(((1S)-7-chloro-5-fluoro-2,3-dihydro-1H-inden-1-yl)sulfonyl)-2,3-bis(hydroxymethyl)-1,4-dioxaspiro[4.5]dec-6-ene-7-carboxylate] | 107 % inhibition | 208.0 ± 33.8 gram | 215.0 ± 21.6 gram | 310.0 ± 33.8 gram
